pIC50: −log10 of the molar value.
Target: T1, full length human TPH1 (Homo sapiens, UniProt P17752)
T1 construct: To generate the enzyme, full length human TPH1 is cloned into the plasmid pET20b(+); made in house; host or cells: E. coli
T1 sequence (P17752 1-444): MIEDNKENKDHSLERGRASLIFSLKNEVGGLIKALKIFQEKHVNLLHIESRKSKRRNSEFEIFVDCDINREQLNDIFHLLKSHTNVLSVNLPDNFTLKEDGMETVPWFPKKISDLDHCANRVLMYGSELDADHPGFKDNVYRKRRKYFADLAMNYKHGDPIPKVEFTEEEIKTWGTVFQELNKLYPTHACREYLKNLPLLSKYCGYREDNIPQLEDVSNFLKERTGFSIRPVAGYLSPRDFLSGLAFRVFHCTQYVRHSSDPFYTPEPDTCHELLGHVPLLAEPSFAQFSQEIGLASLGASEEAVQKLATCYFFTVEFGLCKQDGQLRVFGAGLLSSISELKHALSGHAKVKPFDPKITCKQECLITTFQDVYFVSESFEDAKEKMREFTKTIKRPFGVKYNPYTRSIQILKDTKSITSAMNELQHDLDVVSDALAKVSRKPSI
Assay: Biochemical in vitro assay using fluorescence readout (TPH1 enzyme activity)
How it was run: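 IC50 (mean of repeats) derived from 5-hydroxy-L-tryptophan fluorescence at 540 nm (300 nm excitation) relative to vehicle, after perchloric acid stop. Reaction: 60 min, 15° C., pH 7.6 Tris-HCl, 40 μM L-tryptophan, 100 μM 6-methyltetrahydropterine, DTT, catalase, with 40-80 nM purified full-length human TPH1 from E. coli.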

[1] = Table 1, mean where determined several times

| SMILES | pIC50 [1] | pIC50 (Table 2) |
| --- | --- | --- |
| CC(=O)N1CCn2c(nc3c2C(c2ncc(C4CC4)cc2F)N(C(=O)COc2cc(F)cnc2Cl)CC3)C1 (stereo not shown) [Example 5.4.7, 1-(7-acetyl-1-(5-cyclopropyl-3-fluoropyridin-2-yl)-3,4,6,7,8,9-hexahydropyrido[4′,3′:4,5]imidazo[1,2-a]pyrazin-2(1H)-yl)-2-((2-chloro-5-fluoropyridin-3-yl)oxy)ethanone] | 6.37 |  |
| CC(=O)N1CCn2c(nc3c2C(c2ncc(C4CC4)cc2F)N(C(=O)COc2ccc(N4CCOCC4)nc2F)CC3)C1 (stereo not shown) [Example 5.4.8, 1-(7-acetyl-1-(5-cyclopropyl-3-fluoropyridin-2-yl)-3,4,6,7,8,9-hexahydropyrido[4′,3′:4,5]imidazo[1,2-a]pyrazin-2(1H)-yl)-2-((2-fluoro-6-morpholinopyridin-3-yl)oxy)ethanone] | 7.04 |  |
| CC(=O)N1CCn2c(nc3c2C(c2ncc(C4CC4)cc2F)N(C(=O)COc2cc(F)c(N4CCOCC4)nc2Cl)CC3)C1 (stereo not shown) [Example 5.4.9, 1-(7-acetyl-1-(5-cyclopropyl-3-fluoropyridin-2-yl)-3,4,6,7,8,9-hexahydropyrido[4′,3′:4,5]imidazo[1,2-a]pyrazin-2(1H)-yl)-2-((2-chloro-5-fluoro-6-morpholinopyridin-3-yl)oxy)ethanone] | 7.82 |  |
| COC(=O)c1csc(C2c3c(nc4n3CCN(C(C)=O)C4)CCN2C(=O)COc2ccc(N3CCOCC3)nc2Cl)c1 (stereo not shown) [Example 5.5.1, methyl 5-(7-acetyl-2-(2-((2-chloro-6-morpholinopyridin-3-yl)oxy)acetyl)-1,2,3,4,6,7,8,9-octahydropyrido[4′,3′:4,5]imidazo[1,2-a]pyrazin-1-yl)thiophene-3-carboxylate] | 8.30 |  |
| CN(C)c1ncc(C2c3c(nc4n3CCNC4)CCN2C(=O)COc2ccc(N3CCOCC3)nc2Cl)s1 (stereo not shown) [Example 5.6.1, 2-((2-chloro-6-morpholinopyridin-3-yl)oxy)-1-(1-(2-(dimethylamino)thiazol-5-yl)-3,4,6,7,8,9-hexahydropyrido[4′,3′:4,5]imidazo[1,2-a]pyrazin-2(1H)-yl)ethanone] | 6.38 |  |
| CC(=O)N1CCn2c(nc3c2C(c2cnc(N(C)C)s2)N(C(=O)COc2ccc(N4CCOCC4)nc2Cl)CC3)C1 (stereo not shown) [Example 5.6.2, 1-(7-acetyl-1-(2-(dimethylamino)thiazol-5-yl)-3,4,6,7,8,9-hexahydropyrido[4′,3′:4,5]imidazo[1,2-a]pyrazin-2(1H)-yl)-2-((2-chloro-6-morpholinopyridin-3-yl)oxy)ethanone] | 7.43 |  |
| CC(=O)N1CCn2c(nc3c2C(c2sc(C(=O)N(C)C)cc2F)N(C(=O)COc2ccc(C(=O)N(C)C)nc2Cl)CC3)C1 (stereo not shown) [Example 5.7.1, 5-(2-(7-acetyl-1-(5-(dimethylcarbamoyl)-3-fluorothiophen-2-yl)-3,4,6,7,8,9-hexahydropyrido[4′,3′:4,5]imidazo[1,2-a]pyrazin-2(1H)-yl)-2-oxoethoxy)-6-chloro-N,N-dimethylpicolinamide] | 7.57 |  |
| CC(=O)N1CCn2c(nc3c2C(c2sc(C(=O)N(C)C)cc2F)N(C(=O)COc2ccc(N4CCOCC4)nc2Cl)CC3)C1 (stereo not shown) [Example 5.7.2, 5-(7-acetyl-2-(2-((2-chloro-6-morpholinopyridin-3-yl)oxy)acetyl)-1,2,3,4,6,7,8,9-octahydropyrido[4′,3′:4,5]imidazo[1,2-a]pyrazin-1-yl)-4-fluoro-N,N-dimethylthiophene-2-carboxamide] | 8.22 |  |
| CC(=O)N1CCn2c(nc3c2C(c2ncc(C)cc2F)N(C(=O)COc2ccc(N4CCOCC4)nc2Cl)CC3)C1 (stereo not shown) [Example 5.8.1, 1-(7-acetyl-1-(3-fluoro-5-methylpyridin-2-yl)-3,4,6,7,8,9-hexahydropyrido[4′,3′:4,5]imidazo[1,2-a]pyrazin-2(1H)-yl)-2-((2-chloro-6-morpholinopyridin-3-yl)oxy)ethanone] | 7.96 |  |
| CC(=O)N1CCn2c(nc3c2C(c2ncc(C)cc2F)N(C(=O)COc2ccc(N4CC(F)(F)C4)nc2Cl)CC3)C1 (stereo not shown) [Example 5.8.2, 1-(7-acetyl-1-(3-fluoro-5-methylpyridin-2-yl)-3,4,6,7,8,9-hexahydropyrido[4′,3′:4,5]imidazo[1,2-a]pyrazin-2(1H)-yl)-2-((2-chloro-6-(3,3-difluoroazetidin-1-yl)pyridin-3-yl)oxy)ethanone] | 7.29 |  |
| CC(=O)N1CCn2c(nc3c2C(c2ncc(Cl)cc2F)N(C(=O)COc2ccc(N4CCOCC4)nc2Cl)CC3)C1 (stereo not shown) [Example 5.9.1, 1-(7-acetyl-1-(5-chloro-3-fluoropyridin-2-yl)-3,4,6,7,8,9-hexahydropyrido[4′,3′:4,5]imidazo[1,2-a]pyrazin-2(1H)-yl)-2-((2-chloro-6-morpholinopyridin-3-yl)oxy)ethanone] | 8.10 |  |
| CC(=O)N1CCn2c(nc3c2C(c2ncccc2F)N(C(=O)COc2ccc(N4CCOCC4)nc2Cl)CC3)C1 (stereo not shown) [Example 5.10.1, 1-(7-acetyl-1-(3-fluoropyridin-2-yl)-3,4,6,7,8,9-hexahydropyrido[4′,3′:4,5]imidazo[1,2-a]pyrazin-2(1H)-yl)-2-((2-chloro-6-morpholinopyridin-3-yl)oxy)ethanone] | 7.85 |  |
| CCNC(=O)Nc1nc(C2c3c(nc4n3CCN(C(C)=O)C4)CCN2C(=O)COc2ccc(N3CCOCC3)nc2Cl)cs1 (stereo not shown) [Example 5.11.1, 1-(4-(7-acetyl-2-(2-((2-chloro-6-morpholinopyridin-3-yl)oxy)acetyl)-1,2,3,4,6,7,8,9-octahydropyrido[4′,3′:4,5]imidazo[1,2-a]pyrazin-1-yl)thiazol-2-yl)-3-ethylurea] | 7.00 |  |
| Cc1ccc(C2c3c(nc4n3CCN(C(=O)OC(C)(C)C)C4)CCN2C(=O)COc2ccc(CN3CCOCC3)cc2Cl)c(F)c1 (stereo not shown) [Example 5.12.1, tert-butyl 2-(2-(2-chloro-4-(morpholinomethyl)phenoxy)acetyl)-1-(2-fluoro-4-methylphenyl)-1,2,3,4,8,9-hexahydropyrido[4′,3′:4,5]imidazo[1,2-a]pyrazine-7(6H)-carboxylate] | 6.51 |  |
| Cc1ccc(C2c3c(nc4n3CCNC4)CCN2C(=O)COc2ccc(CN3CCOCC3)cc2Cl)c(F)c1 (stereo not shown) [Example 5.12.2, 2-(2-chloro-4-(morpholinomethyl)phenoxy)-1-(1-(2-fluoro-4-methylphenyl)-3,4,6,7,8,9-hexahydropyrido[4′,3′:4,5]imidazo[1,2-a]pyrazin-2(1H)-yl)ethanone] | 7.28 |  |
| CC(=O)N1CCn2c(nc3c2C(c2ccc(C)cc2F)N(C(=O)COc2ccc(CN4CCOCC4)cc2Cl)CC3)C1 (stereo not shown) [Example 5.12.3, 1-(7-acetyl-1-(2-fluoro-4-methylphenyl)-3,4,6,7,8,9-hexahydropyrido[4′,3′:4,5]imidazo[1,2-a]pyrazin-2(1H)-yl)-2-(2-chloro-4-(morpholinomethyl)phenoxy)ethanone] | 7.82 |  |
| CC(=O)N1CCn2c(nc3c2C(c2sccc2F)N(C(=O)COc2ccc(N4CCOCC4)nc2Cl)CC3)C1 (stereo not shown) [Example 5.13.1, 1-(7-acetyl-1-(3-fluorothiophen-2-yl)-3,4,6,7,8,9-hexahydropyrido[4′,3′:4,5]imidazo[1,2-a]pyrazin-2(1H)-yl)-2-((2-chloro-6-morpholinopyridin-3-yl)oxy)ethanone] | 8.22 |  |
| CC(=O)N1CCn2c(nc3c2C(c2sccc2F)N(C(=O)COc2ccc(C(=O)N(C)C)nc2Cl)CC3)C1 (stereo not shown) [Example 5.13.2, 5-(2-(7-acetyl-1-(3-fluorothiophen-2-yl)-3,4,6,7,8,9-hexahydropyrido[4′,3′:4,5]imidazo[1,2-a]pyrazin-2(1H)-yl)-2-oxoethoxy)-6-chloro-N,N-dimethylpicolinamide] | 7.62 |  |
| CC(C)(C)OC(=O)N1CCn2c(nc3c2C(c2cc(C(=O)NC#N)cs2)N(C(=O)COc2ccc(N4CCOCC4)nc2Cl)CC3)C1 (stereo not shown) [Example 5.14.1, Tert-butyl 2-(2-((2-chloro-6-morpholinopyridin-3-yl)oxy)acetyl)-1-(4-(cyanocarbamoyl)thiophen-2-yl)-1,2,3,4,8,9-hexahydropyrido[4′,3′:4,5]imidazo[1,2-a]pyrazine-7(6H)-carboxylate] |  | 6.47 |
| CC(=O)N1CCn2c(nc3c2C(c2ccc(Cl)cn2)N(C(=O)COc2ccc(N4CCOCC4)nc2Cl)CC3)C1 (stereo not shown) [Example 5.15.1, 1-(7-acetyl-1-(5-chloropyridin-2-yl)-3,4,6,7,8,9-hexahydropyrido[4′,3′:4,5]imidazo[1,2-a]pyrazin-2(1H)-yl)-2-((2-chloro-6-morpholinopyridin-3-yl)oxy)ethanone] | 7.96 |  |
| CC(=O)N1CCn2c(nc3c2C(c2cc(Cl)ccn2)N(C(=O)COc2ccc(N4CCOCC4)nc2Cl)CC3)C1 (stereo not shown) [Example 5.16.1, 1-(7-acetyl-1-(4-chloropyridin-2-yl)-3,4,6,7,8,9-hexahydropyrido[4′,3′:4,5]imidazo[1,2-a]pyrazin-2(1H)-yl)-2-((2-chloro-6-morpholinopyridin-3-yl)oxy)ethanone] | 7.32 |  |
| CC(=O)N1CCn2c(nc3c2C(c2sc(C)nc2C)N(C(=O)COc2ccc(-c4ncco4)nc2Cl)CC3)C1 (stereo not shown) [Example 5.17.1, 1-(7-acetyl-1-(2,4-dimethylthiazol-5-yl)-3,4,6,7,8,9-hexahydropyrido[4′,3′:4,5]imidazo[1,2-a]pyrazin-2(1H)-yl)-2-((2-chloro-6-(oxazol-2-yl)pyridin-3-yl)oxy)ethanone] | 7.57 |  |

Source: patent US10189839B2, “Tricyclic imidazole compounds as inhibitors of tryptophan hydroxylase” (ACTELION PHARMACEUTICALS LTD, priority 2013, dated 2019)
